Source: ChEMBL document CHEMBL1201862, “PubChem BioAssay data set” (2004)
The source made the active and inactive calls.

Key:
Format in all cases: functional
[1] = target: Cyclin-dependent kinase 8 (Homo sapiens, UniProt P49336); experiment: Navigating the Kinome. Panel member name: CDK8
[2] = target: G protein-coupled receptor kinase 5 (Homo sapiens, UniProt P34947); experiment: Navigating the Kinome. Panel member name: GPRK5
[3] = target: Glycogen synthase kinase-3 beta (Homo sapiens, UniProt P49841);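 note: value comes from a broad kinome profiling panel, with GSK3B as the panel member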
Chain of Glycogen synthase kinase-3 beta (P49841 whole entry): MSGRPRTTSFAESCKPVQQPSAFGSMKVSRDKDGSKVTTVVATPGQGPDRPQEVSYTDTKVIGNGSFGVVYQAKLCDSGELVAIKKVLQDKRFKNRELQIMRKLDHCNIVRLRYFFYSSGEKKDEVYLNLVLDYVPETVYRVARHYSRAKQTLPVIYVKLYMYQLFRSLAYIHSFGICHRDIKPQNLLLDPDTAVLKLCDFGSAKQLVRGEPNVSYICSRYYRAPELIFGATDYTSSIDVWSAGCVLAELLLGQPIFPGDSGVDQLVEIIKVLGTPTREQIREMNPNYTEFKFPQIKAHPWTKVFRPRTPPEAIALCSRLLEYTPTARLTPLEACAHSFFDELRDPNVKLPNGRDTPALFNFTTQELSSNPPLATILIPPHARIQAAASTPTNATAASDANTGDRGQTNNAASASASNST

[4] = target: Cell division cycle 7-related protein kinase (Homo sapiens, UniProt O00311);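 note: value obtained from a kinome-wide kinase panel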
Chain of Cell division cycle 7-related protein kinase (O00311 whole entry): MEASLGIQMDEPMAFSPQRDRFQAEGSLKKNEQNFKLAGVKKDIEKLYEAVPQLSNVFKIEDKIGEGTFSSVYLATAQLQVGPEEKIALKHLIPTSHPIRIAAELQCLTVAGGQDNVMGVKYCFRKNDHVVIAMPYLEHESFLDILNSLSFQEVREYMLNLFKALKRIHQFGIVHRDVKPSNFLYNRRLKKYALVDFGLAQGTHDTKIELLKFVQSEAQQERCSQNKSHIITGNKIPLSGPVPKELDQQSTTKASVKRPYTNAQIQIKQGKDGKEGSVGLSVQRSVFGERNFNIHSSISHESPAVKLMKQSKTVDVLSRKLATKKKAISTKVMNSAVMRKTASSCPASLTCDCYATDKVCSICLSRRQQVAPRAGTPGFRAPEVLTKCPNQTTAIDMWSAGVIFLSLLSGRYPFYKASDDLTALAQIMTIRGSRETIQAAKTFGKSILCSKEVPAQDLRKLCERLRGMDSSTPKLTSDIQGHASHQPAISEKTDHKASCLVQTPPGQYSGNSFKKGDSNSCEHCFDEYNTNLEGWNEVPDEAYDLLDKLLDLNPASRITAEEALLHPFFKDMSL

[5] = target: Homeodomain-interacting protein kinase 2 (Homo sapiens, UniProt Q9H2X6);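 note: measured within a kinome-wide kinase profiling panel, HIPK2 being one panel member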
Chain of Homeodomain-interacting protein kinase 2 (Q9H2X6 whole entry): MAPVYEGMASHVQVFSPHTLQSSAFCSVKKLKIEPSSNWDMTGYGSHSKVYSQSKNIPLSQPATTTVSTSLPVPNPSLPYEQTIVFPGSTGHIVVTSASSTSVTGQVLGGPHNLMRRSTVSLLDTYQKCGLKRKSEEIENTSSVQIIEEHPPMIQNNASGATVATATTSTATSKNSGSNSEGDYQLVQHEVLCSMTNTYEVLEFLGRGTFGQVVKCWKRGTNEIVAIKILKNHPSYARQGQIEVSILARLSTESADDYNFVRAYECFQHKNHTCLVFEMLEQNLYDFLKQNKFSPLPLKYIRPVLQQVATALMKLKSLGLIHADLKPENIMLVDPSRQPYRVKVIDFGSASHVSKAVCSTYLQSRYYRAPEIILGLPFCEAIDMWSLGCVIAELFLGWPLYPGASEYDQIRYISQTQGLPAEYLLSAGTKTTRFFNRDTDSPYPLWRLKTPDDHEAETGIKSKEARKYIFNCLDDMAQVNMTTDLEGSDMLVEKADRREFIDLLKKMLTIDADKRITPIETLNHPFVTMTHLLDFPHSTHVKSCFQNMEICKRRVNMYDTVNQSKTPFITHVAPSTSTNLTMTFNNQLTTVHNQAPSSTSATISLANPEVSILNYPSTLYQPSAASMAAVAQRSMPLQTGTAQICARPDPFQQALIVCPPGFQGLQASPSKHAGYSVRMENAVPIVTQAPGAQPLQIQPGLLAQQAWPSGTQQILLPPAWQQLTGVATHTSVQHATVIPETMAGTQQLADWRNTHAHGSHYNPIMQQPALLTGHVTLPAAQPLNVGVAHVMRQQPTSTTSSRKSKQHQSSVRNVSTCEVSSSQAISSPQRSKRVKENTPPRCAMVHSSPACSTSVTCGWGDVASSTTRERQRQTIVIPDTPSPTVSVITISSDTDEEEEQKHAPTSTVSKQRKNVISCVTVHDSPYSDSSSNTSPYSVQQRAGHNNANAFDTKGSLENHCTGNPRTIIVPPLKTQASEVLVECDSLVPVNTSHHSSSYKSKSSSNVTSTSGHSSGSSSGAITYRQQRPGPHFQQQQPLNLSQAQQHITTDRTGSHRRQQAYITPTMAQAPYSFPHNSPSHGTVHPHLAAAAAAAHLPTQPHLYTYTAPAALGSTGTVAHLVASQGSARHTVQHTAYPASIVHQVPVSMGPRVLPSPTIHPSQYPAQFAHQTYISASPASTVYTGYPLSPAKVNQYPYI

[6] = target: cAMP-dependent protein kinase catalytic subunit alpha (Homo sapiens, UniProt P17612)
[7] = target: Mitogen-activated protein kinase kinase kinase kinase 4 (Homo sapiens, UniProt O95819)
Chain of Mitogen-activated protein kinase kinase kinase kinase 4 (O95819 whole entry): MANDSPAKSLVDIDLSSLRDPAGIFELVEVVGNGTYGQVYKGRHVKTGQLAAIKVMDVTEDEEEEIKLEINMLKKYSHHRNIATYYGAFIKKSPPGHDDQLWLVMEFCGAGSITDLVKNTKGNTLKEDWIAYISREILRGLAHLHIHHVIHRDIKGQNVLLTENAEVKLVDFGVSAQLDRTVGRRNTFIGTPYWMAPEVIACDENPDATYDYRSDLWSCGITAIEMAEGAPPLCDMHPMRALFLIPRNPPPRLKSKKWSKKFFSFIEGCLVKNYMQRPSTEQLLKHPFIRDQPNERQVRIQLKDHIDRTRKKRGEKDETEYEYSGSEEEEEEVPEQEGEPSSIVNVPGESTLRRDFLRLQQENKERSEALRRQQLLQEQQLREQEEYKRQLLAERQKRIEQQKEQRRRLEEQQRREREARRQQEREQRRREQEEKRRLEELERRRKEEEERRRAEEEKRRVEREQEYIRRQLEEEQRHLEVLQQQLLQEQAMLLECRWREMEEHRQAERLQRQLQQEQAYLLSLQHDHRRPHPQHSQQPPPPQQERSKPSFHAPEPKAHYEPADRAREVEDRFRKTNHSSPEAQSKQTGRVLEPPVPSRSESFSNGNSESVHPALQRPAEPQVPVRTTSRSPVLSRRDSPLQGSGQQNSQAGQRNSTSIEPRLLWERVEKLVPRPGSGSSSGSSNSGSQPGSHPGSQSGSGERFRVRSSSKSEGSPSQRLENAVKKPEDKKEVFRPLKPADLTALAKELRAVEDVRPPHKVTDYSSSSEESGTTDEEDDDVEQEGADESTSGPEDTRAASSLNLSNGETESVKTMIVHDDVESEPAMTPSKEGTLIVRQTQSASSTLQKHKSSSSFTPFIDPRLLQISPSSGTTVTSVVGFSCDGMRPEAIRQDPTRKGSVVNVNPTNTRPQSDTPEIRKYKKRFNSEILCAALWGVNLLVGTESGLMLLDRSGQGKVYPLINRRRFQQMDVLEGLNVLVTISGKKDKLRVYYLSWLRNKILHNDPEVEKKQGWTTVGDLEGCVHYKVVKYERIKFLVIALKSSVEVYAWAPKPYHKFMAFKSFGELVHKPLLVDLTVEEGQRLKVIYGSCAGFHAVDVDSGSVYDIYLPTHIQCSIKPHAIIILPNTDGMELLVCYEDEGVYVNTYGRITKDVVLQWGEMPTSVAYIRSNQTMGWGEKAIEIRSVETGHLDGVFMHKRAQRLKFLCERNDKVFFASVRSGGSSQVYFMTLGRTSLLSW

[8] = target: Dual specificity protein kinase CLK4 (Homo sapiens, UniProt Q9HAZ1)
Chain of Dual specificity protein kinase CLK4 (Q9HAZ1 whole entry): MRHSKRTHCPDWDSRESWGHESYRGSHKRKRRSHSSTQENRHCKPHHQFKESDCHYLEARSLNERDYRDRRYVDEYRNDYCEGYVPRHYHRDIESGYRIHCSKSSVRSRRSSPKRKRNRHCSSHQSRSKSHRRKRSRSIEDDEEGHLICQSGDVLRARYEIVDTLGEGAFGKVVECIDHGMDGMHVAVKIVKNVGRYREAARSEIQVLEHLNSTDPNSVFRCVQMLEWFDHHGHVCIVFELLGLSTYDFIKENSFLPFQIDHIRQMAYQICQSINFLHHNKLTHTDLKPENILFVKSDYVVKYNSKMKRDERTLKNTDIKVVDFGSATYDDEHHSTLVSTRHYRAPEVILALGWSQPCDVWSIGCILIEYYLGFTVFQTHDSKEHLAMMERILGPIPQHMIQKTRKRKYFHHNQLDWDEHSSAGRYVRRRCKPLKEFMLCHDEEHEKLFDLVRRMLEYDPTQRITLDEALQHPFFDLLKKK

[9] = target: MAP kinase-interacting serine/threonine-protein kinase 2 (Homo sapiens, UniProt Q9HBH9)
[10] = target: T1, Interleukin-1 receptor-associated kinase 4 (Homo sapiens, UniProt Q9NWZ3)
T1 sequence (Q9NWZ3 whole entry): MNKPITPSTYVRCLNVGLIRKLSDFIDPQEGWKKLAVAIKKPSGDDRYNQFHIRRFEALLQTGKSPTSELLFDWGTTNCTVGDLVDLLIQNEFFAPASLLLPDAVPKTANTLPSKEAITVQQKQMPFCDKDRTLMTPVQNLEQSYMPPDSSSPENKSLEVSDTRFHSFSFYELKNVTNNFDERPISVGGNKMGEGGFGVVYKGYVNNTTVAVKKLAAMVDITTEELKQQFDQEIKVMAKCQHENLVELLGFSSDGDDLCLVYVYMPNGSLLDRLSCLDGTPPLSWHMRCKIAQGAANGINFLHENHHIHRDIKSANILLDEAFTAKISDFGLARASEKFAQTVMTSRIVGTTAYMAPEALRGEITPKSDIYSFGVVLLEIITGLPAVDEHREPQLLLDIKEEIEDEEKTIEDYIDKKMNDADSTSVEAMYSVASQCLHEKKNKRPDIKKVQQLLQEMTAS

[11] = target: Serine/threonine-protein kinase pim-1 (Homo sapiens, UniProt P11309)
Chain of Serine/threonine-protein kinase pim-1 (P11309 whole entry): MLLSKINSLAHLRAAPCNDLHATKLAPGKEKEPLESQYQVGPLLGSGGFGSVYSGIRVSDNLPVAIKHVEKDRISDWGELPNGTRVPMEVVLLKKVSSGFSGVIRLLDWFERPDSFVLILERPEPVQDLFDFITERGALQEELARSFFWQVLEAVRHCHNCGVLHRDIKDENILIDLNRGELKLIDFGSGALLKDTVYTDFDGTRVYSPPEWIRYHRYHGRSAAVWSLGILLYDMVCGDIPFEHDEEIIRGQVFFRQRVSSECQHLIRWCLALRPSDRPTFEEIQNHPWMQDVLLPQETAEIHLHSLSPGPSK

[12] = target: Cyclin-dependent kinase 2 (Homo sapiens, UniProt P24941);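 note: CDK2 measured as one member of a broad kinome profiling panel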
[13] = target: T2, High affinity choline transporter 1 (Homo sapiens, UniProt Q9GZV3); experiment: human choline transporter potentiators, potency – cell-based, 10-point CRC, membrane potential dye, dose response (AID 602376)
T2 sequence (Q9GZV3 whole entry): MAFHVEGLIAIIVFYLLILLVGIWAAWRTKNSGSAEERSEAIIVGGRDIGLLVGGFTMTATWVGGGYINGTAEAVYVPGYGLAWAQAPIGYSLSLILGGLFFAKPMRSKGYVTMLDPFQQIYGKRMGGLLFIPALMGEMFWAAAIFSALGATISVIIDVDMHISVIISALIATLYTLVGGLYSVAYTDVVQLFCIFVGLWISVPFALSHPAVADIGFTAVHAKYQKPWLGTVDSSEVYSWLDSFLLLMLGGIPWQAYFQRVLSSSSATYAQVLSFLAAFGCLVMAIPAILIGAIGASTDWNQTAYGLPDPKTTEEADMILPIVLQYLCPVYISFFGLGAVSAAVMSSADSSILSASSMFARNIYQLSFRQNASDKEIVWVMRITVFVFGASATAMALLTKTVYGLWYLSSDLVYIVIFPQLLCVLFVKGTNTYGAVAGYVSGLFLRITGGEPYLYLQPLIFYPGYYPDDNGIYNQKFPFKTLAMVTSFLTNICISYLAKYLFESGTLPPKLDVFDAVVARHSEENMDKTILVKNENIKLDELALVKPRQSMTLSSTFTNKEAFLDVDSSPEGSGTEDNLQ

Vero = experiment: Vero E6 cell cytotoxicity, dose response, cytotoxicity control (AID 540298); conditions: Chlorocebus sabaeus
MDCK [14] = experiment: MDCK cell cytotoxicity, dose response, cytotoxicity control (AID 540296); conditions: Canis lupus familiaris
MDCK [15] = experiment: antiviral activity against H1N1 influenza, dose response, cell-based, strain KY136 (AID 540257); conditions: Canis lupus familiaris

Chain of G protein-coupled receptor kinase 5 (P34947 whole entry): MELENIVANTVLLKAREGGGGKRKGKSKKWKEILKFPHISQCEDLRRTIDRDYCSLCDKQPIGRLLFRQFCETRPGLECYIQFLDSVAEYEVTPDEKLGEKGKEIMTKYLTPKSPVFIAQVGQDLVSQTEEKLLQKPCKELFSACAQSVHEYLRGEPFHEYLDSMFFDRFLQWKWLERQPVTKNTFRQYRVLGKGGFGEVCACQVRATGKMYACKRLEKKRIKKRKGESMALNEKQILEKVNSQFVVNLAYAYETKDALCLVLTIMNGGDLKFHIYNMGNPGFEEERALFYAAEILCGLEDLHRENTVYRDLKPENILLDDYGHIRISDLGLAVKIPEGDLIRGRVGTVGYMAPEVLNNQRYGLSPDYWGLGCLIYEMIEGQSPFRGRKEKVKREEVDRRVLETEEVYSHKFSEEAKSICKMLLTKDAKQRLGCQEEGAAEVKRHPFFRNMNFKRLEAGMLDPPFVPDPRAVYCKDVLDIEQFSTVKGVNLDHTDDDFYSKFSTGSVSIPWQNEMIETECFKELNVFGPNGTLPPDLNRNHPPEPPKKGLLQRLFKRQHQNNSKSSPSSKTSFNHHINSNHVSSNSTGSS

Structure (SMILES)	Ki [3]	Ki [4]	Ki [5]	Ki [6]	Ki [7]	Ki [8]	Ki [10]	Ki [11]	further results
Cc1cc(C)cc(NC(=O)NC2=NN(c3ccccc3)C(=O)C2)c1	–	–	–	–	–	–	–	–	Ki [1]: 3160 nM (active); Ki [2]: 3980 nM (active)
O=C1Nc2ccccc2Nc2cc(-c3ccncc3Cl)ccc21	251 nM (active)	20 nM (active)	1260 nM (active)	794 nM (active)	794 nM (active)	63.1 nM (active)	1000 nM (active)	> 10000 nM (inactive)	Ki [9]: 200 nM (active)
CCOC(=O)c1c[nH]n2c(=O)cc(-c3ccncc3)nc12	316 nM (active)	5.01 nM (active)	50.1 nM (active)	> 7940 nM (inactive)	> 10000 nM (inactive)	25.1 nM (active)	> 10000 nM (inactive)	3160 nM (active)	Ki [12]: > 7940 nM (inactive)
O=C1N(Cc2cccc(Cl)c2)C[C@@H]2C[C@@H](c3cccn3-c3ccccn3)N3CCC[C@@]123	–	–	–	–	–	–	–	–	EC50 [13]: 8220 nM (active)
CC1CCN(c2nc(NCc3ccco3)nc(N)c2[N+](=O)[O-])CC1	–	–	–	–	–	–	–	–	CC50 (Vero): > 40000 nM (active); CC50 (MDCK [14]): 11400 nM (active); IC50 (MDCK [15]): 2570 nM (active)
